{
  "source": "patent US9730906B2",
  "about": "“α-derivatives of cis-monounsaturated fatty acids for use as medicines” (UNIVERSITAT DE LES ILLES BALEARS, priority 2008, dated 2017)",
  "key": {"cadherin": {"tested_on": "cadherin", "assay": "Cadherin levels in A549 cells (antibody, confocal microscopy)", "format": "cell-based, human", "settings": "50 μM OHOD (48 h)", "description": "FIG. 4. Cancer cells (A549) were incubated in the absence (FIG. 4A) and presence (FIG. 4B) of OHOD ([…], 48 h). Then they were fixed, incubated in the presence of an antibody against cadherin and were observed by confocal microscopy. Treatments with 50 μM OHOD (48 h) induced an increase of 73.6±5.4% in the levels of this protein. In treatments with the fatty acids of the invention, a significant increase in cadherin levels was observed.\nFurthermore, α-derivatives of cis-monounsaturated fatty acids are capable of inducing cadherin expression. Cadherin is a cellular adhesion protein. Cells expressing cadherin are often not displaced from their tissue location as they adhere to the surrounding cells. Tumour cells that lose the capacity to synthesise this protein can migrate from the tissue in which they were generated to other body tissues where they can develop a new tumour focus by the process known as metastasis. In treatments with α-derivatives of cis-monounsaturated the fatty acids, a significant increase in cadherin levels was observed (FIG. 4). The invasive capacity of cancer cells was also investigated in a culture plate invasion model. […] Then, an area of the culture dish is scraped and the number of cells invading this region at various times, in the presence and absence of the anti-metastasis compound is counted."}, "aortas of SHR rats": {"tested_on": "aortas of SHR rats", "assay": "Contractile response induced by noradrenalin in isolated aorta, organ bath", "set-up": "species or system rat", "settings": "aortas pre-treated 60 minutes in organ bath at 37° C., vs vehicle, p<0.05", "description": "FIG. 11. Effect of OHOD on the contractile response induced by noradrenalin (NA) in aortas of SHR rats. The logarithm of NA is shown on the horizontal axis and the concentration (g) is shown on the vertical axis. The aortas were treated with OHOD (filled circles) or vehicle (empty circles) for 60 minutes in an organ bath at 37° C. in Ringer medium with oxygen.\nAtherosclerosis or arteriosclerosis is a pathology characterised by the loss of contractility of blood vessels. This loss is associated with diverse factors, among which is the formation of deposits on the vascular lumen giving rise to the proliferation of vascular cells, reduction of blood flow and vasoconstrictor and vasodilator responses to neurotransmitters (such as noradrenalin) and to hormones. In studies in isolated rat aorta in organ bath, it was shown that the contraction power of the aortic muscle in response to noradrenalin increased very markedly after pre-treatments with OHOD acid. In addition, all the compounds with the structure of Formula I had similar effects on vascular muscle."}, "A118": {"tested_on": "A118", "assay": "Effect of OHOD on cancer cells in culture (Table 2)", "format": "cell-based, human", "set-up": "key to Anti-tumour effect: + [inhibition of growth]; ++ [total halt of growth]; +++ [total removal of tumour cells]; key to Mechanism of action: P [anti-proliferative]; D [differentiation]; A [apoptosis]", "settings": "A118, Glioma", "description": "(§1) Also, a series of α-derivatives of cis-monounsaturated fatty acids were used to investigate their effectiveness in cancer treatment. Two types of experiment were performed. Firstly, the dependency of the anti-tumour effect on concentration was investigated. To perform these experiments, human lung cancer cells (A549) were cultivated in RPMI medium, supplemented with 10% foetal bovine […], 10 mM Hepes (pH 7.4), 2 mM glutamine, 2 g/l bicarbonate, 1 g/l glucose, 100 units/ml penicillin, 0.1 mg/ml streptomycin, 0.25 μg/ml Amphotericin B, at 37° C. and in the presence of 5% CO2. In a first experimental series, these cells were treated with various concentrations (0-400 μM) of OHOD and MOD11 and the number of cells was determined by flow cytometry (FIG. 3A). […] In a second series, the anti-tumour effectiveness on A549 lung cancer cells was investigated at a single concentration (150 μM) and a time of 48 hours (FIG. 3B). […] Obviously, among the previous molecules, some lacked both modifications on the α-carbon and the double bond in cis configuration (EO, HDO, ODO) and had no therapeutic effect.\n(§2) In a second experimental series, designed to discover whether these molecules are effective in treatment of different types of tumours, the effect of OHOD at various concentrations on human cells of different types of cancer was studied. These experiments were performed as described before, except that the M220 and HT-29 cell lines were cultured in DMEM medium and the MDA-MB-231 line was incubated in Leibowitz L-15 medium supplemented with 15% foetal bovine […]. […] Where the nature of the tumour process requires, application can be topical (use on the skin of active products for the treatment of melanoma and other cutaneous abnormalities of cancerous nature), which can be considered as cosmetic treatments when attempts are made to correct aesthetic defects."}, "LNcaP": {"tested_on": "LNcaP", "assay": "Effect of OHOD on cancer cells in culture (Table 2)", "format": "cell-based, human", "set-up": "key to Anti-tumour effect: + [inhibition of growth]; ++ [total halt of growth]; +++ [total removal of tumour cells]; key to Mechanism of action: P [anti-proliferative]; D [differentiation]; A [apoptosis]", "settings": "Prostate", "description": "as §1, §2"}, "[1]": {"tested_on": "human brain cancer (SF767), human lung cancer cells (A549), human pancreas cancer cells (BXPC3)", "assay": "Na-OHOD alone and combined with anti-tumour pharmaceuticals in immune-deprived mice with human tumours", "format": "in vivo", "settings": "Na-OHOD 600 mg/kg", "description": "FIG. 8A. Effect of Na-OHOD (sodium salt of OHOD) and combinations with various pharmaceuticals: temozolomide (TMZ), erlotinib, gemcitabine and cisplatin (cis-Pt) on various types of human cancers in models. Effect of treatments with vehicle (Control), temozolomide (TMZ, 80 mg/kg), Na-OHOD (OHOD, 600 mg/kg) and TMZ plus Na-OHOD (simultaneously at the same doses) for 60 days in immune-deprived mice infected with human brain cancer (SF767).\nFIG. 8B. Effect of Na-OHOD (sodium salt of OHOD) and combinations with various pharmaceuticals: temozolomide (TMZ), erlotinib, gemcitabine and cisplatin (cis-Pt) on various types of human cancers in models. Idem, with Na-OHOD (OHOD, 600 mg/kg), erlotinib (Erlotinib, 40 mg/kg), cisplatin (cis-Pt, 100 mg/kg), plus erlotinib (OHO Er) or Na-OHOD plus cisplatin (OHO Pt) in nude mice infected with human lung cancer cells (A549).\nFIG. 8C. Effect of Na-OHOD (sodium salt of OHOD) and combinations with various pharmaceuticals: temozolomide (TMZ), erlotinib, gemcitabine and cisplatin (cis-Pt) on various types of human cancers in models. Idem with Na-OHOD (OHOD, 600 mg/kg), Gemcitabine (Gemcitab, 40 mg/kg) or Na-OHOD plus Gemcitabine (OHO Gem) using the same doses in nude mice infected with human pancreas cancer cells (BXPC3). […]"}},
  "data": [
    {"smiles": "CCCCCCCC/C=C\\CCCCCCC(O)C(=O)O", "note": "(stereo not drawn) [OHOD, α-Hydroxy-cis-Δ9-octadecenoic]", "values": [
      {"measurement": "increase in the levels of cadherin", "setting": "cadherin", "result": "73.6±5.4", "unit": "%"},
      {"measurement": "contractile response induced by noradrenalin (NA)", "setting": "aortas of SHR rats", "result": "much higher"},
      {"measurement": "Anti-tumour effect", "setting": "A118", "result": "+++"},
      {"measurement": "Mechanism of action", "setting": "A118", "result": "D"},
      {"measurement": "Anti-tumour effect", "setting": "LNcaP", "result": "+++"},
      {"measurement": "Mechanism of action", "setting": "LNcaP", "result": "A"}
    ]},
    {"smiles": "CCCCCCCC/C=C\\CCCCCCC(O)C(=O)[O-].[Na+]", "note": "(stereo not shown) [Na-OHOD]", "values": [
      {"measurement": "anti-tumour effectiveness of Na-OHOD alone vs temozolomide, erlotinib, gemcitabine, cisplatin", "setting": "[1]", "result": "more effective"}
    ]}
  ]
}
